Test results reported in US8802597B2, “Herbicidal pyrimidines” (E I du Pont de Nemours and Company, priority 2003, dated 2014).
Read-outs that look alike come from different tables or passages of the source.

Experiments:
Assay in all cases: Test C pre/postemergence
Format in all cases: in vivo
corn (Zea mays) = details: Zea mays; for Corn plant response rating (crop injury, 0 = no effect, 100 = complete kill) at 125 g/ha: 125 g ai/ha; for Corn plant response rating (crop injury, 0 = no effect, 100 = complete kill) at 250 g/ha: 250 g ai/ha
Procedure, shortened: (§1)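 Rating scale 0–100: 0 means no effect, 100 complete control; taken visually 12 to 14 days post-treatment versus controls. Pre- and postemergence greenhouse applications, postemergence at 1- to 4-leaf stage, non-phytotoxic solvent with surfactant as carrier.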

[1] = tested on: common (oilseed) sunflower (Helianthus annuus); details: Helianthus annuus, pre-emergence, Preemergence, read-out: Plant response rating, Sunflower
Procedure, shortened: as §1

kochia (Kochia scoparia) = details: Bassia scoparia; for pest or weed control at 31 g/ha: 31 g ai/ha; for pest or weed control at 62 g/ha: 62 g ai/ha; for pest or weed control at 125 g/ha: 125 g ai/ha; for pest or weed control at 250 g/ha: 250 g ai/ha
Procedure, shortened: as §1

[2] = tested on: cocklebur (Xanthium strumarium); details: Xanthium strumarium; for pest or weed control at 31 g/ha: 31 g ai/ha; for pest or weed control at 62 g/ha: 62 g ai/ha; for pest or weed control at 125 g/ha: 125 g ai/ha; for pest or weed control at 250 g/ha: 250 g ai/ha
Procedure, shortened: as §1

[3] = tested on: woolly cupgrass (Eriochloa villosa); details: Eriochloa villosa; for pest or weed control at 31 g/ha: 31 g ai/ha; for pest or weed control at 62 g/ha: 62 g ai/ha; for pest or weed control at 125 g/ha: 125 g ai/ha; for pest or weed control at 250 g/ha: 250 g ai/ha
Procedure, shortened: as §1

[4] = tested on: bermudagrass (Cynodon dactylon); details: Cynodon dactylon; for pest or weed control at 31 g/ha: 31 g ai/ha; for pest or weed control at 62 g/ha: 62 g ai/ha; for pest or weed control at 125 g/ha: 125 g ai/ha; for pest or weed control at 125 g/ha / pest or weed control at 250 g/ha: scale 0 to 100; for pest or weed control at 250 g/ha: 250 g ai/ha
Procedure, shortened: as §1

[5] = post-emergence, Postemergence, scale 0 to 100 (0 no effect, 100 complete control), read-out: Kochia plant response rating
[6] = pre-emergence, Preemergence, scale 0 to 100, 0 no effect, 100 complete control, read-out: Plant response rating, Kochia
[7] = pre-emergence, Preemergence, scale 0 to 100, read-out: Plant response rating, Kochia
[8] = post-emergence, Postemergence, scale 0 to 100 (0 no effect, 100 complete control), read-out: Cocklebur plant response rating
[9] = pre-emergence, Preemergence, scale 0 to 100, 0 no effect, 100 complete control, read-out: Plant response rating, Cocklebur
[10] = pre-emergence, Preemergence, scale 0 to 100, read-out: Plant response rating, Cocklebur
[11] = post-emergence, Postemergence, scale 0 to 100 (0 no effect, 100 complete control), read-out: Cupgrass, Woolly plant response rating
[12] = pre-emergence, Preemergence, scale 0 to 100, 0 no effect, 100 complete control, read-out: Plant response rating, Cupgrass, Woolly
[13] = pre-emergence, Preemergence, scale 0 to 100, read-out: Plant response rating, Cupgrass, Woolly
[14] = post-emergence, Postemergence, read-out: Plant response rating, Bermudagrass
[15] = pre-emergence, Preemergence, scale 0 to 100, 0 no effect, 100 complete control, read-out: Plant response rating, Bermudagrass
[16] = pre-emergence, Preemergence, read-out: Plant response rating, Bermudagrass

COC(=O)c1nc(C2CC2)nc(N)c1Cl [Compound 9, methyl 6-amino-5-chloro-2-cyclopropyl-4-pyrimidinecarboxylate]
Corn plant response rating (crop injury, 0 = no effect, 100 = complete kill) at 125 g/ha (corn (Zea mays); post-emergence, Postemergence, scale 0 to 100 (0 no effect, 100 complete control), read-out: Corn plant response rating): 65%
Corn plant response rating (crop injury, 0 = no effect, 100 = complete kill) at 250 g/ha (corn (Zea mays); post-emergence, Postemergence, scale 0 to 100): 95%
Corn plant response rating (crop injury, 0 = no effect, 100 = complete kill) at 31 g/ha (corn (Zea mays); pre-emergence, Preemergence, 31 g ai/ha, scale 0 to 100, 0 no effect, 100 complete control, read-out: Plant response rating, Corn): 0%
Corn plant response rating (crop injury, 0 = no effect, 100 = complete kill) at 62 g/ha (corn (Zea mays); pre-emergence, Preemergence, 62 g ai/ha, scale 0 to 100, 0 no effect, 100 complete control, read-out: Plant response rating, Corn): 5%
Corn plant response rating (crop injury, 0 = no effect, 100 = complete kill) at 125 g/ha (corn (Zea mays); pre-emergence, Preemergence, scale 0 to 100, read-out: Plant response rating, Corn): 60%
Corn plant response rating (crop injury, 0 = no effect, 100 = complete kill) at 250 g/ha (corn (Zea mays); pre-emergence, Preemergence, scale 0 to 100): 75%
pest or weed control at 31 g/ha ([1]; 31 g ai/ha, scale 0 to 100, 0 no effect, 100 complete control): 100%
pest or weed control at 62 g/ha ([1]; 62 g ai/ha, scale 0 to 100, 0 no effect, 100 complete control): 100%
pest or weed control at 125 g/ha ([1]; 125 g ai/ha, scale 0 to 100): 100%
pest or weed control at 250 g/ha ([1]; 250 g ai/ha, scale 0 to 100): 100%
pest or weed control at 31 g/ha (kochia (Kochia scoparia); post-emergence, Postemergence, read-out: Plant response rating (scale of 0 to 100), Kochia): 95%
pest or weed control at 62 g/ha (kochia (Kochia scoparia); [5]): 100%
pest or weed control at 125 g/ha (kochia (Kochia scoparia); [5]): 100%
pest or weed control at 250 g/ha (kochia (Kochia scoparia); post-emergence, Postemergence, scale 0 to 100, read-out: Plant response rating, Kochia): 100%
pest or weed control at 31 g/ha (kochia (Kochia scoparia); [6]): 95%
pest or weed control at 62 g/ha (kochia (Kochia scoparia); [6]): 95%
pest or weed control at 125 g/ha (kochia (Kochia scoparia); [7]): 100%
pest or weed control at 250 g/ha (kochia (Kochia scoparia); [7]): 100%
pest or weed control at 31 g/ha ([2]; post-emergence, Postemergence, read-out: Plant response rating (scale of 0 to 100), Cocklebur): 40%
pest or weed control at 62 g/ha [2, 8]: 85%
pest or weed control at 125 g/ha [2, 8]: 100%
pest or weed control at 250 g/ha ([2]; post-emergence, Postemergence, scale 0 to 100, read-out: Plant response rating, Cocklebur): 100%
pest or weed control at 31 g/ha [2, 9]: 75%
pest or weed control at 62 g/ha [2, 9]: 80%
pest or weed control at 125 g/ha [2, 10]: 100%
pest or weed control at 250 g/ha [2, 10]: 100%
pest or weed control at 31 g/ha ([3]; post-emergence, Postemergence, read-out: Plant response rating (scale of 0 to 100), Cupgrass, Woolly): 40%
pest or weed control at 62 g/ha [3, 11]: 60%
pest or weed control at 125 g/ha [3, 11]: 70%
pest or weed control at 250 g/ha ([3]; post-emergence, Postemergence, scale 0 to 100, read-out: Plant response rating, Cupgrass, Woolly): 85%
pest or weed control at 31 g/ha [3, 12]: 0%
pest or weed control at 62 g/ha [3, 12]: 90%
pest or weed control at 125 g/ha [3, 13]: 95%
pest or weed control at 250 g/ha [3, 13]: 100%
pest or weed control at 31 g/ha ([4]; post-emergence, Postemergence, read-out: Plant response rating (scale of 0 to 100), Bermudagrass): 60%
pest or weed control at 62 g/ha ([4]; post-emergence, Postemergence, scale 0 to 100 (0 no effect, 100 complete control), read-out: Bermudagrass plant response rating): 65%
pest or weed control at 125 g/ha [4, 14]: 70%
pest or weed control at 250 g/ha [4, 14]: 80%
pest or weed control at 31 g/ha [4, 15]: 100%
pest or weed control at 62 g/ha [4, 15]: 100%
pest or weed control at 125 g/ha [4, 16]: 100%
pest or weed control at 250 g/ha [4, 16]: 100%
